The values below come from patent US10106582B2, “Complex-formation-modulating agents and uses therefor” (Factor Therapeutics Limited, priority 2012, dated 2018).

Common to all, as to type: cell-based, human
In assay [1] the test system is MCF-7 cells. Nature of the assay: Transwell migration assay, IGF-I+IGFBP-3+VN (TRI)-stimulated MCF-7 cell migration. The procedure:
FIG. 6 is a graphical representation showing MCF-7 cell migration in response to VN peptides. MCF-7 cells were seeded onto the upper-surface of a Transwell inserts coated on the under-surface with treatments containing IGF-I+IGFBP-3+VN (TRI; 10 nM) with or without increasing concentrations of either peptide P7, P8 or Pneg. Migration was assessed after 15 hours. Data is represented as percentage of change in migration compared to the TRI only control. Error bars indicate standard error mean.
This assay has been repeated three times with treatments tested in triplicate wells in each replicate experiment.
The breast cancer epithelial cell line MCF-7 was used for this assay. Migration was assessed by measuring relative number of cells migrating through 8-μm pore Transwell membranes in response to substrate-bond proteins complexes. IGFBP-3 was allowed to bind either peptide P7, P8 or a combination of P7 and P8 for 2 hours. IGF-I was later added to this protein mix which was then added to Transwells pre-coated with VN. Post-overnight incubation, unbound proteins were removed, Transwells washed twice and cells seeded onto the upper chamber. Cells migrated to the under-surface over 15 hours were indirectly quantified using crystal violet staining.

For assay [2], the system named is MCF-7 cells. Nature of the assay: Transwell migration assay, IGF-I+IGFBP-5+VN trimeric complex-stimulated MCF-7 cell migration. The text has this: Two motifs (motifs 1 and 8) within native VN, deemed potentially significant in supporting the binding of IGF-II, IGFBP-3 and IGFBP-5, were identified as outlined in the previous section. After preliminary in silico analyses motif 8 (J4-7) was deemed as potentially the most significant region within native VN supporting binding interactions of all the three IGF-II, IGFBP-3 and IGFBP-5 proteins and was chosen for the initial analyses. The VN-peptide covering the sequences of motif 8 was designed such that it covered all the 3AA frameshift sets that contributed to a positive spot within the motif 8 (see, FIG. 3 and Table 7). The sequence of this peptide is RVNLRTRRVDTVDPPYPRS [SEQ ID NO:100] and is designated P8. […] The sequence of that peptide is […] [SEQ ID NO:86] and is designated P7. […] The functional effects of these peptides on IGF-I:IGFBP:VN-stimulated breast cancer cell migration were investigated using Transwell® assays. Transwells® were pre-bound with VN, either alone or in combination with IGF-I and IGFBP-5 (TRI). Treatment with TRI supplemented with increasing concentrations of peptides P7 and/or P8 were assayed. TRI supplemented with Anlg or Neg peptide were included as positive and negative controls of migration inhibition, respectively. All unbound proteins were removed with washing and MCF-7 cell migration was assessed over 15 hours.
The Transwell® inserts were prepared by pre-binding the lower chamber and the under-surface of the 8-μm pore membranes with proteins as described below. For all 2D functional assays described throughout this study, including Transwell® the treatments for the pre-binding steps were VN, IGF-I+IGFBP-5+VN (TRI) complex, either alone or in combination with respective controls or VN-peptides. The concentrations of the proteins added into the culture wells were VN, 1 μg/mL; IGF-I, 30 ng/mL and IGFBP-5, 90 ng/mL, unless otherwise stated. The concentration of VN-peptides used are indicated where appropriate.
Optimal IGF-I:IGFBP-5:VN-mediated attachment and migration of MCF-7 cells in multiwell plates is obtained by pre-binding human native-IGF-I and/or IGFBP-5 and VN at concentrations of 30 ng/mL, 90 ng/mL and 1 μg/mL per well, respectively, to the lower chambers and under surfaces of Transwells®. […] For Anlg, concentrations varying from 30 ng/mL to 300 ng/mL were used.
Transwells® were prepared by pre-binding the test proteins, either alone or in combinations, to the lower chambers and under-surfaces of Transwells® following procedures previously described (Kricker et al., 2003). Briefly, 0.5 mL DMEM/F12 serum-free phenol-red free medium (SFM) containing 1 μg/mL VN was added to the lower chambers of 24-well, 8-μm pore Transwell® plates and incubated for 3 hours at 37° C. Unbound VN was removed and the wells were washed twice with 0.5 mL SFM+0.5% BSA following which 0.5 mL of SFM+0.5% BSA was placed in the lower chamber to block surfaces with no protein bound. To pre-bind growth factors, 0.5 mL SFM+0.05% BSA containing native IGF-I (30 ng/mL), IGFBP-5 (90 ng/mL) or Anlg, either alone or in combination, were added to the lower chambers of the Transwells® and incubated overnight at 4° C. The solution containing unbound growth factors was removed and the wells were washed twice with SFM+0.05% BSA and replaced with 0.5 mL of SFM+0.05% BSA. Throughout the pre-binding procedure care was taken to keep the upper surface of the Transwell® inserts dry.
Migration assays were essentially performed following protocols described previously in Leavesley et al 1993, J Cell Biol. 121:163-70. The cells in culture flasks were split 1:1, 24 hours prior to performing the migration assay. The cells were serum-starved for 4 hours and a cell suspension containing 6×10^4 cells in 200 μL SFM+0.05% BSA was seeded onto the upper-surface of the pre-coated Transwell® inserts and incubated for 15 hours at 37° C., 5% CO2 (refer to above for proteins pre-bound and concentrations used). […]

In assay [3] the test system is MCF-7 cells. Nature of the assay: 3D Matrigel growth assay of MCF-7 tumor spheroids. The text has this: FIG. 7 is a photographic and graphical representation showing MCF-7 3D cell growth in response to peptide antagonists. MCF-7 cells suspended in media containing 1% serum and 2.5% Matrigel (Matrigel media) were layered onto a thin layer of 100% Matrigel. Spheroids were allowed to form in Matrigel media containing VN, TRI or TRI supplemented with peptides P7 and P8. Cells were allowed to grow for 14 days with media+proteins changed every 3 days. (A) Phase contrast and fluorescence microscopy was used to obtain images of the spheroids treated with 90 nM P7, P8 or P7+8. The fluorescent images were subjected to analysis using Image J to calculate spheroid sizes. The images post-ImageJ analyses are depicted in the bottom panel of A. All the images depicted are representative images obtained from triplicate experiments with treatments tested in duplicates in each replicate experiment. Scale bar denotes 100 μm. (B) Scatter plot depicts mean spheroid size (μm^2) at Day 14 for each treatment, calculated using Image-J (90 nM peptide treatments are depicted here). Each data point in the graph is the average size of all spheroids present in a single field of view at 40× magnification. ** denotes p<0.01 and * denotes p<0.05. (C) To measure cell viability/proliferation the 3D culture was treated on Day 14 with 5% Alamar Blue dye for 4 hours and fluorescence intensities were recorded. Error bars indicate SEM. ** denotes p<0.01 Vs TRI and * denotes p<0.05 Vs TRI. The experiment was repeated twice with treatments tested in duplicate wells in each replicate experiment. TRI=IGF-I:IGFBP-5:VN trimeric complex (equimolar at 10 nM concentrations).
To closely mimic in vivo conditions, cells were grown in a 3D matrix (Matrigel) closely resembling in vivo extracellular matrix physiology. MCF-7 cells suspended in growth media containing 1% serum and 2.5% Matrigel (Matrigel media) were layered onto a thin layer of 100% Matrigel. Tumor spheroids were allowed to form for 3 days after which spent media was replenished with Matrigel media containing VN only, trimeric complex, or trimeric complex supplemented with increasing concentrations of peptides (P7, P8 or P7+P8). Cells were allowed to grow for additional 11 days with media+proteins changed every 3 days. Spheroid morphology was assessed using phase-contrast microscopy and cell viability was measured using AlamarBlue, a fluorescent metabolic dye.

Consider “RVNLRTRRVDTVDPPYPRS (listed as Homo sapiens) [Peptide P8, human VN motif 8 mimic]”, for which the “Inhibition of TRI-stimulated MCF-7 cell migration” value in the assay with MCF-7 cells [1] (30 nM peptide dose, TRI 10 nM, 15 hours (most significant inhibition)) is recorded as “returned to the ‘VN only’ treatment levels”; with MCF-7 cells [1] (increasing peptide concentrations added to TRI (IGF-I+IGFBP-3+VN; 10 nM), 15 hours), “dose dependent inhibition”. Moreover, the MCF-7 cell migration is listed as 94.4±1 % of VN in the assay on MCF-7 cells [2] (TRI supplemented with peptide at 3× molar concentration of IGFBP-5 (43 ng/mL P7, 38 ng/mL P8), 15 hours) and 121.7±8 % of VN with MCF-7 cells [2] (TRI supplemented with peptide at 9× molar concentration of IGFBP-5, 15 hours). Besides, in the assay with MCF-7 cells [3] (90 nM peptide, Day 14, 3D Matrigel culture), the “TRI-stimulated cell viability (AlamarBlue)” value is given as “significantly inhibit”. In addition, the “Spheroid size (ImageJ) versus control TRI treatment” value in the assay with MCF-7 cells [3] (90 nM peptide, Day 14, phalloidin staining) is recorded as “highest inhibitory effects”. Also, in the assay on MCF-7 cells [3] (increasing concentrations of peptides, Matrigel 3D culture, 14 days), the “Size of TRI-treated tumor spheroids (phase-contrast microscopy)” value was “decrease with increasing concentrations”.
